The structures appear in SMILES notation. Where a chain is given by its changes, count along the chain named.

The values that follow come from paper PMC3170524 (Physiological research / Academia Scientiarum Bohemoslovaca, 2010).

Holding throughout (test): whole-cell patch clamp, peak current dose-response
Holding throughout (type): cell-based
Background: In patch-clamp work, channel activity is measured electrically.

Assay [1] deals with T1, rat P2X4R (Rattus norvegicus, UniProt P51577, C261A).
T1 sequence (P51577 1-388 C261A): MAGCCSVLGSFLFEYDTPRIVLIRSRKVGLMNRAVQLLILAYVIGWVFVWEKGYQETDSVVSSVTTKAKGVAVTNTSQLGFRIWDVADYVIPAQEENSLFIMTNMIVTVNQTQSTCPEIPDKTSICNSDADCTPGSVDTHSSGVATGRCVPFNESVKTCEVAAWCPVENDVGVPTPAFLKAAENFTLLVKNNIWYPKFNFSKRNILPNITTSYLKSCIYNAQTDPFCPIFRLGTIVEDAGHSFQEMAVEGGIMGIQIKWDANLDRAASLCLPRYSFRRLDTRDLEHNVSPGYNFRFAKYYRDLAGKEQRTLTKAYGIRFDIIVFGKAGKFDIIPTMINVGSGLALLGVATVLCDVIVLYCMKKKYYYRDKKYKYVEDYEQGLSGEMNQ

Assay [2] concerns the target T2, rat P2X4R (Rattus norvegicus, UniProt P51577, C270T).
T2 sequence (P51577 1-388 C270T): T1 sequence (P51577 1-388 C261A) with A261C, C270T

Assay [3] addresses T3, rat P2X4R (Rattus norvegicus, UniProt P51577, C159A).
T3 sequence (P51577 1-388 C159A): T1 sequence (P51577 1-388 C261A) with C159A, A261C

Assay [4] deals with T4, rat P2X4R (Rattus norvegicus, UniProt P51577, C159T).
T4 sequence (P51577 1-388 C159T): T1 sequence (P51577 1-388 C261A) with C159T, A261C

Assay [5] has as its target T5, rat P2X4R (Rattus norvegicus, UniProt P51577, C126T/C149T).
T5 sequence (P51577 1-388 C126T/C149T): T1 sequence (P51577 1-388 C261A) with C126T, C149T, A261C

Assay [6] deals with T6, rat P2X4R (Rattus norvegicus, UniProt P51577, C261T/C270T).
T6 sequence (P51577 1-388 C261T/C270T): T1 sequence (P51577 1-388 C261A) with A261T, C270T

For assay [7], the target named is T7, rat P2X4R (Rattus norvegicus, UniProt P51577, C165A).
T7 sequence (P51577 1-388 C165A): T1 sequence (P51577 1-388 C261A) with C165A, A261C

As a reminder, the EC50 is the concentration at which the effect is half-maximal. A high value points to a need for much substance. For `Nc1ncnc2c1ncn2[C@@H]1O[C@H](COP(=O)(O)OP(=O)(O)OP(=O)(O)O)[C@@H](O)[C@H]1O` [ATP], the EC50 is 5.5 ± 1.7 µM at rat P2X4R [1]; 3.4 ± 1.8 µM at rat P2X4R [2]; 5.1 ± 1.4 µM at rat P2X4R [3]; 12 ± 4.1 µM at rat P2X4R [4]; 65 ± 24 µM at rat P2X4R [5]; 1.7 ± 0.8 µM on rat P2X4R [6]. In addition, the EC50 on rat P2X4R [7] is 42 ± 8.9 µM.
